Data on three molecules can be found in patent US20020031818A1, “Modification of Mdm2 activity” (priority 2000, published 2002).

The test system of test [1] is Mdm2. As to the kind of experiment: 35S pulse-chase half-life of Mdm2 forms in p53/Mdm2 double null cells. The test is classed as cell-based, human. As to conditions: lactacystin 25 μM.
Description: C. p53/Mdm2 double null cells were transfected with the wt or K1 forms of Mdm2 and 24 h later were subjected to pulse chase labeling with ^35S-methionine in the absence or presence of lactacystin (25 μM) as indicated in Figure. Proteins prepared at the indicated time-points were immunoprecipitated using monoclonal antibodies to Mdm2 followed by autoradiography.
p53/Mdm2 double null cells were transfected with wt or K1 forms of Mdm2 expression vectors (4 μg). ^35S-methionine (1 mCi) was added to the cell cultures 24 h after transfection for 5 hr (pulse) followed by chase (2 mM cold methionine) for the indicated time-points. Protein extracts (1 mg) were used for immunopurification of Mdm2 using mixture of monoclonal antibodies (2A-10/3 F1). Immunoprecipitated Mdm2 was washed, separated on 10% SDS-PAGE and analyzed by autoradiography.
For test [2], the system named is Mdm2. As to the kind of experiment: In vivo ubiquitination of Mdm2 in EJ cells (HA-Ub, Mdm2 immunoprecipitation). The test is classed as cell-based, mouse. An excerpt: FIG. 14A-14E. A. In vitro ubiquitination of Mdm2 is inhibited by p19^ARF. GST-Mdm2 was subjected to an in vitro ubiquitination reaction using purified forms of E1, E2 and Ub-HA in the presence of ATP. Addition of bacculovirus-purified p19^ARF at the indicated concentrations blocked Mdm2 ubiquitination. Glutathione bead-coupled GST-Mdm2 in its ubiquitinated or non-ubiquitinated forms was washed and analyzed on immunoblots using antibodies to HA (upper panel). Middle panel depicts the level of Mdm2 expression and the lower panel, the level of p19^ARF added to the reaction. B. p19^ARF expression increases Mdm2 self-ubiquitination in EJ cells. EJ cells were transfected with the indicated plasmids. Cells were harvested 36 h later and proteins ([…]) were immunoprecipitated using Mdm2 antibodies (2A10). Immunoprecipitated material was washed and proteins loaded onto 10% SDS-PAGE, followed by immunoblot analysis with HA-antibodies to detect covalent HA-ubiquitin conjugation to Mdm2 (upper panel). Middle panel depicts level of immunoprecipitated Mdm2. Lower panel represents western analysis of p19^ARF expression levels. C. In vitro ubiquitination of Mdm2 in the presence of p19^ARF and protein extracts. […] The level of p53 immunoprecipitated was monitored in immunoblots using polyclonal antibodies to p53 (middle). […]

For the next test, the system named is p53-mediated apoptosis. As to the kind of experiment: Apoptosis assay (DNA fragmentation, flow cytometry) in Mdm2/p53 double null cells. The format is cell-based. As to conditions: co-expression with p53 in Mdm2/p53 double null cells. Here is the method: FIGS. 5A-5D. Mdm2 sumoylation or mutation on Lys446 increases p53 ubiquitination and degradation and decreases p53 ability to mediate apoptosis. […] WCE was immunoprecipitated using monoclonal p53 antibodies. […] B. Ubiquitinated Mdm2 is less efficient in targeting the ubiquitination of p53. Bacterially expressed Mdm2 ([…]) was subjected to in vitro ubiquitination (self ubiquitination) in the presence of E1 [45 ng], E2 UbcH5b [1.5 μg] and ubiquitin [3 μg; SIGMA] and […] in ubiquitination buffer for the 0, 2, or 3 h (to ensure efficient self-ubiquitination) as indicated in Figure. To monitor the degree of Mdm2's ability to target the ubiquitination of p53, equal amounts of the self-ubiquitinated Mdm2 were extensively washed with TBS/0.5% Triton X-100 before incubated with bacculovirus-expressed and purified form of HA-tagged p53 for 2 h in the presence of E1, E2 and ubiquitin. The degree of p53 ubiquitination was monitored via immunoblot analysis using antibodies to HA. C. […]
Mdm2/p53 double null cells were transfected with Mdm2 constructs (as indicated) and marker plasmid encoding Green Fluorescent Protein, pEGFP (1 μg). […] The percentage of cells to the left of the diploid G0/1 peak, characteristic of hypodiploid cells, was calculated as the percentage of apoptotic cells.

As to `CC(=O)N[C@@H](CSC(=O)[C@]1([C@@H](O)C(C)C)NC(=O)[C@H](C)[C@@H]1O)C(=O)O` [lactacystin], in the test on Mdm2 [1] (K1 expressing cells), the “effect on half life of K1 form of Mdm2” value is on record as “remained unchanged”. In the test with Mdm2 [1] (wt Mdm2 transfected cells), the “effect on half-life of p75 and p90 forms of Mdm2” value was “prolonged the half-life of both p75 and p90”.

Consider `C[S+]([O-])c1ccc(-c2nc(-c3ccncc3)c(-c3ccc(F)cc3)[nH]2)cc1` (centres unmarked) [SB203580], for which the “p19ARF-mediated Mdm2 ubiquitination in inhibitor-treated cells” value in the test with Mdm2 [2] (EJ cells with Flag-Mdm2, p19ARF, HA-Ub, PD 98059 50 μM, SB203580 10 and 100 μM, LY294002 50 μM, Herbimycin 1 μM) is recorded as “capable of attenuating p19^ARF-mediated Mdm2 ubiquitination”. Further, in the test on Mdm2 [2] (SB203580 10 μM or LY294002 50 μM, 2 h prior to harvest), the “increase in Mdm2 ubiquitination after UV treatment in inhibitor-pretreated cells” value is given as “attenuated”.

Consider “K1: Mdm2 mutant with lysine 446 substituted for arginine”, for which the “decrease in p53-induced apoptosis (cell death) compared with wt Mdm2” value in the test on p53-mediated apoptosis is “greater decrease in degree of cell death”.
